US8399206B2, “Methods for diagnosis, prognosis and methods of treatment” (Nodality, Inc., priority 2008, dated 2013)
Where a SMILES comes first, the peptide text is derived from it. The star is where a group is joined. Cbz = O=C(OCc1ccccc1)*; CH2F = FC*

Experiments:
Type in all cases: cell-based, human
AML blasts [1] = assay: Functional apoptosis and DNA damage response assay, AML study No. 1 (c-PARP, cleaved caspases, p-Chk2)
Method: Multi-parameter flow cytometric analysis was performed on peripheral blasts taken at diagnosis from 9 AML patients who achieved a complete response (CR) and 24 patients who were non-responders (NR) to one cycle of standard 7+3 induction therapy (100-200 mg/m2 cytarabine and 60 mg/m2 daunorubicin). The signaling nodes were organized into 4 biological categories: 1) Protein expression of receptors and drug transporters 2) Response to cytokines and growth factors, 3) Phosphatase activity, and 4) Apoptotic signaling pathways.
A viable cell will be Aqua negative and PARP negative and a measure of cell death is PARP and/or Aqua positivity. “Apoptosis”=% of PARP^−Aqua^−unstim−% of PARP^−Aqua^−Drug.
Functional assays were performed as previously described. Cells were incubated with modulators (Table 18), at 37° C. for 3-15 minutes, fixed with 1.6% paraformaldehyde (final concentration) for 10 minutes at 37° C., pelleted and permeabilized with 100% ice-cold methanol and stored at −80° C.
The median fluorescence intensity (MFI) was computed for each node from the fluorescence intensity levels for the cells in the myeloid population. The MFI values were then used to compute a variety of metrics by comparing them to baseline or background values, including the unmodulated condition, cellular autofluorescence and antibody isotype controls. The following metrics were computed: • 1. Basal MFI (“Basal”)=log2(MFIUnmodulated Stained)−log2(MFIGated Unstained (Autofluoresence)), designed to measure the basal levels of a certain protein under unmodulated conditions. • 2. Fold Change MFI (“Fold”)=log2(MFIModulated Stained)−log2(MFIUnmodulated Stained), a measure of the change in the activation state of a protein under modulated conditions. • 3. Total Phospho MFI (“TotalPhospho”)=log2(MFIModulated Stained)−log2(MFIGated Unstained (Autofluorescence)), a measure of the total levels of a protein under modulated conditions. • 4. Relative Protein Expression (“Rel. Expression”)=log2(MFIstain)−log2(MFIControl), a measure of the levels of surface marker staining relative to control antibody staining. • 5. […] An additional metric was designed to measure the levels of cellular apoptosis in response to cytotoxic drugs: Quadrant (“Quad”)=a measure of the percentage of cells in a flow cytometry quadrant region defined by p-Chk2 and c-PARP i.e. the % of cells that are both p-Chk2- and c-PARP+.

AML myeloblasts (BMMC) = assay: SCNP of paired diagnosis and relapse AML BMMC and independent diagnostic set (Example 5); details: paired diagnosis samples of Patients 1 and 2
Text: All AML bone marrow mononuclear cells (BMMC) were derived from the bone marrow (BM) of AML patients treated at MD Anderson Cancer Center (MDACC) between September 1999 and September 2006. Clinical data were de-identified in compliance with Health Insurance Portability and Accountability Act regulations. Patient/sample inclusion criteria required a diagnosis of French-American-British (FAB) classification of M0 through M7 AML (excluding M3) AML, collection prior to therapy initiation and at least 50% viability upon sample thaw. For the identification of chemoresistant signaling profiles, two longitudinally paired BMMC samples at diagnosis (collection prior to the initiation of induction chemotherapy) and first relapse, were examined. An independent test set comprised of 47 BMMC samples collected at diagnosis from AML patients with a disease response of CR after high dose cytarabine based chemotherapy was used to assess the ability of the identified signaling profiles to predict disease relapse. Healthy, unstimulated BMMC (n=2) were purchased from a commercial source (All Cells) to serve as a control. All samples underwent fractionation over Ficoll-Hypaque prior to cryopreservation with 90% fetal bovine serum and 10% dimethyl sulfoxide and storage in liquid nitrogen.
The SCNP assay measured response to growth factors and cytokines involved in hematopoietic progenitor or myeloid biology (SCF, FLT3L, G-CSF, IL-27), drug transporter (ABCG2, MRP-1) and chemokine receptors (CXCR4) associated with adverse disease prognosis in AML, and the c-Kit growth factor receptor for SCF. The SCF and FLT3L-mediated PI3K/Akt and MAPK pathway is important for maintaining the hematopoietic stem cell pool; G-CSF-mediated Jak/STAT pathway activation is important for neutrophilic differentiation of hematopoietic progenitor cells; interleukin (IL)-27 mediated Jak/STAT pathway activation is important in regulating proliferation and differentiation of hematopoietic stem cells; CXCR4 expression is associated with disease relapse and decreased survival; and drug transporter expression levels (i.e. ABCG2 and MRP-1) are known to be associated with adverse prognosis in AML. All together, approximately 20 signaling nodes were evaluated in each sample.
SCNP assays were performed as described previously. Cryopreserved samples were thawed at 37° C. and washed once in warm PBS containing 10% FBS (HyClone, Waltham, Mass., USA) and 2 mM EDTA. […] The cells were re-suspended in RPMI containing 1% FBS, aliquoted to 100,000 cells/condition and rested for 1-2 hours at 37° C. […]

AML blasts [2] = assay: SCNP / phospho-flow modulated signaling assay, AML study No. 1 (PBMC at diagnosis, CR vs NR)
Text: The present illustrative example represents how to analyze cells in one embodiment of the present invention. There are several steps in the process, such as the stimulation step, the staining step and the flow cytometry step. The stimulation step of the phospho-flow procedure can start with vials of frozen cells and end with cells fixed and permeabilized in methanol. Then the cells can be stained with an antibody directed to a particular protein of interest and then analyzed using a flow cytometer.
Frozen cells are thawed in a 37° C. water bath and gently resuspended in the vial and transferred to the 15 mL conical tube. The 15 mL tube is centrifuged at 930 RPM (200×g) for 8 minutes at room temperature. The supernatant is aspirated and the pellet is gently resuspended in 1 mL media A. The cell suspension is filtered through a 70 um cell strainer into a new 15 mL tube. The cell strainer is rinsed with 1 mL media A and another 12 ml of media A into the 15 mL tube. The cells are mixed into an even suspension. A 20 μL aliquot is immediately removed into a 96-well plate containing 180 μL PBS+4% FBS+CD45 Alexa 700+PI to determine cell count and viability post spin. After the determination, the 15 mL tubes are centrifuged at 930 RPM (200×g) for 8 minutes at room temperature. The supernatant is aspirated and the cell pellet is gently resuspended in 4 mL PBS+4 μL Amine Aqua and incubated for 15 min in a 37° C. incubator. 10 mL RPMI+1% FBS is added to the cell suspension and the tube is inverted to mix the cells. The 15 mL tubes are centrifuged at 930 RPM (200×g) for 8 minutes at room temperature. The cells are resuspended in Media A at the desired cell concentration (1.25×10^6/mL). For samples with low numbers of cells (<18.5×10^6), the cells are resuspended in up to 15 mL media. For samples with high numbers of cells (>18.5×10^6), the volume is raised to 10 mL with media A and the desired volume is transferred to a new 15 mL tube, and the cell concentration is adjusted to 1.25×10^6 cells/ml. 1.6 mL of the above cell suspension (concentration at 1.25×10^6 cells/ml) is transferred into wells of a multi-well plate. From this plate, 80 ul is dispensed into each well of a subsequent plate. The plates are covered with a lid (Nunc) and placed in a 37° C. incubator for 2 hours to rest.
A concentration for each stimulant that is five folds more (5×) than the final concentration is prepared using Media A as diluent. 5× stimuli are arrayed into wells of a standard 96 well v-bottom plate that correspond to the wells on the plate with cells to be stimulated.
Adding the stimulant: The cell plate(s) are taken out of the incubator and placed in a 37° C. water bath next to the pipette apparatus. The cell plate is taken from the water bath and gently swirled to resuspend any settled cells. With pipettor, the stimulant is dispensed into the cell plate and vortexed at “7” for 5 seconds. The deep well plate is put back into the water bath.
Adding Fixative: 200 μl of the fixative solution (final concentration at 1.6%) is dispensed into wells and then mixed on the titer plate shaker on high for 5 seconds. The plate is covered with foil sealer and incubated in a 37° C. water bath for 10 minutes. The plate is spun for 6 minutes at 2000 rpm at room temperature. The cells are aspirated using a 96 well plate aspirator (VP Scientific). The plate is vortexed to resuspend cell pellets in the residual volume. The pellet is ensured to be dispersed before the Methanol step (see cell permeabilization) or clumping will occur.
Cell Permeabilization: Permeability agent, for example methanol, is added slowly and while the plate is vortexing. To do this, the cell plate is placed on titer plate shaker and made sure it is secure. The plate is set to shake using the highest setting. A pipetter is used to add 0.6 mls of 100% methanol to the plate wells. The plate(s) are put on ice until this step has been completed for all plates.

[3] = Study No. 1 sensitivity analysis, CR samples
[4] = Study No. 1 sensitivity analysis, NR samples incl. CRp

**Q.** Which “cell death as determined by cleaved PARP and cleaved Caspase 8” value (AML blasts [1]) does the source give for `CN[C@@H]1C[C@H]2O[C@@](C)([C@@H]1OC)n1c3ccccc3c3c4c(c5c6ccccc6n2c5c31)C(=O)NC4` [Staurosporine] here?
**A.** failed to undergo cell death

**Q.** What about the “cleaved PARP and caspase 8” value (AML blasts [1]) of the same molecule?
**A.** significant populations of cells with cleaved PARP and caspase 8

**Q.** And the “in vitro apoptotic response in the context of FLT3 mutations” value (AML blasts [1])?
**A.** greatest apoptotic responses were those that expressed FLT3 ITD

**Q.** And the “phosphorylated Chk2” value (AML blasts [1])?
**A.** increase in phosphorylated Chk2

**Q.** With SCF: stem cell factor as the molecule, how does the “responsive cells in diagnostic AML bone marrow samples” value (AML myeloblasts (BMMC)) read?
**A.** ~1%

**Q.** And the “Mean Value of CRs, p-Akt Fold” value (AML blasts [2]; [3])?
**A.** 0.09

**Q.** What about the “Mean Value of CRs, p-CREB Total Phospho” value (AML blasts [2]; [3]) of the same molecule?
**A.** 1.32

**Q.** And the “Mean Value of CRs, p-Erk Fold” value (AML blasts [2]; [3])?
**A.** −0.06

**Q.** What about the “Mean Value of CRs, p-Plcγ2 Total Phospho” value (AML blasts [2]; [3]) of the same molecule?
**A.** 1.80

**Q.** And the “Mean Value of NRs, p-Akt Fold” value (AML blasts [2]; [4])?
**A.** 0.56

**Q.** And the “Mean Value of NRs, p-CREB Total Phospho” value (AML blasts [2]; [4])?
**A.** 1.92

**Q.** What about the “Mean Value of NRs, p-Erk Fold” value (AML blasts [2]; [4]) of the same molecule?
**A.** 0.11

**Q.** And the “Mean Value of NRs, p-Plcγ2 Total Phospho” value (AML blasts [2]; [4])?
**A.** 2.79

**Q.** What does the source list for `COC(=O)CC(NC(=O)C(C)NC(=O)C(NC(=O)OCc1ccccc1)C(C)C)C(=O)CF` (stereo not drawn) [Z-VAD, benzyloxycarbonyl-Val-Ala-Asp (OMe) fluoromethylketone] (Cbz-Val-Ala-Asp(OMe)-CH2F; configuration not given here)?
**A.** cleavage of caspase 3 and PARP on co-incubation with Z-VAD (AML blasts [1]; samples 0341, 0521): inhibited cleavage of caspase 3 and PARP to near completion; PARP cleavage on co-incubation with Z-VAD (AML blasts [1]; samples 8303, 8402): only partially inhibited

B1: G-CSF: granulocyte colony-stimulating factor (protein, UniProt P09919 31-207, looked up)
Granulocyte …: TPLGPASSLPQSFLLKCLEQVRKIQGDGAALQEKLVSECATYKLCHPEELVLLGHSLGIPWAPLSSCPSQALQLAGCLSQLHSGLFLYQGLLQALEGISPELGPTLDTLQLDVADFATTIWQQMEELGMAPALQPTQGAMPAFASAFQRRAGGVLVASHLQSFLEVSYRVLRHLAQP
**Q.** How did the “responsive cells in diagnostic AML bone marrow samples” value (AML myeloblasts (BMMC)) turn out when B1 was run?
**A.** ~1%

**Q.** What about the “increase in p-Akt and p-S6 levels” value (AML blasts [2]; Staurosporine Resistant category vs other apoptosis categories) of the same molecule?
**A.** greatest increase in p-Akt and p-S6 levels

**Q.** What about the “Mean Value of CRs, p-Stat3 Fold” value (AML blasts [2]; [3]) of the same molecule?
**A.** 0.60

**Q.** What about the “Mean Value of CRs, p-Stat3 Total Phospho” value (AML blasts [2]; [3]) of the same molecule?
**A.** 1.40

**Q.** And the “Mean Value of CRs, p-Stat5 Fold” value (AML blasts [2]; [3])?
**A.** 0.33

**Q.** And the “Mean Value of NRs, p-Stat3 Total Phospho” value (AML blasts [2]; [4])?
**A.** 2.74

**Q.** And the “Mean Value of NRs, p-Stat5 Fold” value (AML blasts [2]; [4])?
**A.** 1.15

**Q.** And the “Mean Value of NRs, p-Stat3 Fold” value (AML blasts [2]; Study No. 1 sensitivity analysis, NR samples incl. CRp, negative = down regulation)?
**A.** 1.52

**Q.** And the “Jak/Stat response (G-CSF: p-Stat3, p-Stat5; GM-CSF: p-Stat5)” value (AML blasts [2]; all samples of the Staurosporine Resistant apoptosis category)?
**A.** Robust Jak/Stat responses
